Results as given in the supplement of paper PMC7287046.

Tests used:
Conditions in all cases: exposure time: 72 h
[1] = tested on: T98; test: Chou-Talalay combination index (dimensionless); higher = less synergy (more antagonism)
Outline: (§1)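 Two drugs were combined in a 6 × 6 grid of twofold dilutions on glioma cells plated 24 h earlier in 96-well plates, with low-adhesion plates for primary cultures. Each dilution series was capped at the drug's single-drug IC50. After three days, CellTiter-Glo readings were taken at least in triplicate. The Chou–Talalay combination index was calculated by the median effect principle from single and combined viabilities, given as percent of DMSO controls.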

[2] = tested on: U251; test: as above
Outline: as §1

[3] = tested on: U118; test: as above
Outline: as §1

[4] = tested on: SNB75; test: as above
Outline: as §1

[5] = tested on: AM38; test: as above
Outline: as §1

[6] = tested on: SF539; test: as above
Outline: as §1

[7] = tested on: KNS42; test: as above
Outline: as §1

[8] = tested on: U87; test: as above
Outline: as §1

[9] = tested on: SF268; test: as above
Outline: as §1

[10] = tested on: KNS-42; test: Loewe synergy score (Combenefit); higher = more synergy; extreme values may be limits of the assay
Outline: (§2)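 Pairs of drugs were tested on glioma cell lines as 6 × 6 matrices in 96-well plates. Each drug was given in twofold dilutions topped at its own IC50, added 24 h after plating, with an untreated control repeated sixfold. Three days later, viability was read by CellTiter-Glo as percent of DMSO controls, at least in triplicate. Loewe, Bliss and highest single agent synergy scores were computed in Combenefit from the normalised matrices.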

[11] = tested on: U251; test: as above
Outline: as §2

[12] = tested on: U118; test: as above
Outline: as §2

[13] = tested on: SNB75; test: as above
Outline: as §2

[14] = tested on: SF539; test: as above
Outline: as §2

[15] = tested on: T98G; test: as above
Outline: as §2

[16] = tested on: U87; test: as above
Outline: as §2

[17] = tested on: SF268; test: as above
Outline: as §2

[18] = tested on: AM-38; test: as above
Outline: as §2

[19] = tested on: KNS-42; test: HSA synergy score (Combenefit); higher = more synergy
Outline: as §2

[20] = tested on: U251; test: as above
Outline: as §2

[21] = tested on: U118; test: as above
Outline: as §2

[22] = tested on: SNB75; test: as above
Outline: as §2

[23] = tested on: SF539; test: as above
Outline: as §2

[24] = tested on: T98G; test: as above
Outline: as §2

[25] = tested on: U87; test: as above
Outline: as §2

[26] = tested on: SF268; test: as above
Outline: as §2

[27] = tested on: AM-38; test: as above
Outline: as §2

[28] = tested on: KNS-42; test: Bliss synergy score (Combenefit); higher = more synergy; extreme values may be limits of the assay
Outline: as §2

[29] = tested on: U251; test: as above
Outline: as §2

[30] = tested on: U118; test: as above
Outline: as §2

[31] = tested on: SNB75; test: as above
Outline: as §2

[32] = tested on: SF539; test: as above
Outline: as §2

[33] = tested on: T98G; test: as above
Outline: as §2

[34] = tested on: U87; test: as above
Outline: as §2

[35] = tested on: SF268; test: as above
Outline: as §2

[36] = tested on: AM-38; test: as above
Outline: as §2

SMILES	Chou-Talalay combination index [1]	Chou-Talalay combination index [2]	Chou-Talalay combination index [3]	Chou-Talalay combination index [4]	Chou-Talalay combination index [5]	Chou-Talalay combination index [6]	Chou-Talalay combination index [7]	Chou-Talalay combination index [8]	Chou-Talalay combination index [9]	Loewe synergy score [10]	Loewe synergy score [11]	Loewe synergy score [12]	Loewe synergy score [13]	Loewe synergy score [14]	Loewe synergy score [15]	Loewe synergy score [16]	Loewe synergy score [17]	Loewe synergy score [18]	HSA synergy score [19]	HSA synergy score [20]	HSA synergy score [21]	HSA synergy score [22]	HSA synergy score [23]	HSA synergy score [24]	HSA synergy score [25]	HSA synergy score [26]	HSA synergy score [27]	Bliss synergy score [28]	Bliss synergy score [29]	Bliss synergy score [30]	Bliss synergy score [31]	Bliss synergy score [32]	Bliss synergy score [33]	Bliss synergy score [34]	Bliss synergy score [35]	Bliss synergy score [36]
CO[C@H]1C[C@@H]2CC[C@@H](C)[C@@](O)(O2)C(=O)C(=O)N2CCCC[C@H]2C(=O)O[C@H]([C@H](C)C[C@@H]2CC[C@@H](O)[C@H](OC)C2)CC(=O)[C@H](C)/C=C(\C)[C@@H](O)[C@@H](OC)C(=O)[C@H](C)C[C@H](C)/C=C/C=C/C=C/1C [Rapamycin] + C=CCc1cccc(/C=N/NC(=O)CN2CCN(Cc3ccccc3)CC2)c1O [PAC-1]	1.13	0.927	1.03	0.925	1.24	0.975	0.607	1.01	0.962	13.7	0.233	3.97	7.67	3.72	0	0	5.45	0.274	14.1	0.552	4.75	8.87	4.8	1.1	0.71	5.88	0.274	5.47	0.334	0	0.0756	0.0748	0	0	0	0
CO[C@H]1C[C@@H]2CC[C@@H](C)[C@@](O)(O2)C(=O)C(=O)N2CCCC[C@H]2C(=O)O[C@H]([C@H](C)C[C@@H]2CC[C@@H](O)[C@H](OC)C2)CC(=O)[C@H](C)/C=C(\C)[C@@H](O)[C@@H](OC)C(=O)[C@H](C)C[C@H](C)/C=C/C=C/C=C/1C [Rapamycin] + CCOc1nc(NC(=O)Cc2cc(OC)ccc2OC)cc(N)c1C#N [JNK inhibitor VIII]	0.917	0.74	1.1	0.706	0.906	1.09	0.843	0.776	1.09	6.4	5.59	1.75	16.7	0.362	0.183	0.748	0.192	3.73	6.4	8.47	2.12	19.9	0.625	0.183	5.37	0.46	3.73	1.98	6.55	0	0.0362	0	0.183	4.63	0	0
CO[C@H]1C[C@@H]2CC[C@@H](C)[C@@](O)(O2)C(=O)C(=O)N2CCCC[C@H]2C(=O)O[C@H]([C@H](C)C[C@@H]2CC[C@@H](O)[C@H](OC)C2)CC(=O)[C@H](C)/C=C(\C)[C@@H](O)[C@@H](OC)C(=O)[C@H](C)C[C@H](C)/C=C/C=C/C=C/1C [Rapamycin] + C[C@@H](Oc1cc(-c2cnn(C3CCNCC3)c2)cnc1N)c1c(Cl)ccc(F)c1Cl [Crizotinib]	1.1	0.715	1	0.943	1.07	0.968	0.807	0.683	0.928	18.6	26	5.03	9.67	3.24	0	16.4	8.2	0	19.5	26.2	5.07	10.4	3.78	0	19.4	8.72	0.00484	3.73	5.62	0	0.128	0	0	11.2	0.0254	0
CO[C@H]1C[C@@H]2CC[C@@H](C)[C@@](O)(O2)C(=O)C(=O)N2CCCC[C@H]2C(=O)O[C@H]([C@H](C)C[C@@H]2CC[C@@H](O)[C@H](OC)C2)CC(=O)[C@H](C)/C=C(\C)[C@@H](O)[C@@H](OC)C(=O)[C@H](C)C[C@H](C)/C=C/C=C/C=C/1C [Rapamycin] + Cc1cc([C@@H](C)Nc2ccccc2C(=O)O)c2nc(N3CCOCC3)cc(=O)n2c1 [AZD6482]	0.924	0.927	1.16	0.75	0.643	1.05	0.912	0.974	1.02	2.6	1.43	2.56	21.8	5.95	12	0	3.35	9.55	2.6	1.43	3.28	25.2	6.85	14.4	0	3.85	12.4	1.42	1.43	0	3.78	0	0.59	0	0.00824	1.1
CCC(=O)N1CCN(c2ccc(-n3c(=O)ccc4cnc5ccc(-c6cnc7ccccc7c6)cc5c43)cc2C(F)(F)F)CC1 [Torin1] + C#Cc1cccc(Nc2ncnc3cc(OCCOC)c(OCCOC)cc23)c1 [Erlotinib]	0.249	0.279	0.744	0.61	0.754	0.678	0.917	0.58	0.819	3.69	32.9	13.7	10.2	9.6	11	6.1	10.5	0	3.86	35.3	20.5	18.2	14	11.1	11.5	15.2	0	1.13	25.4	2.65	15.6	0.68	4.09	0.359	0.392	0
CCC(=O)N1CCN(c2ccc(-n3c(=O)ccc4cnc5ccc(-c6cnc7ccccc7c6)cc5c43)cc2C(F)(F)F)CC1 [Torin1] + CCCCCCCCCCCC1=C(O)C(=O)C=C(O)C1=O [Embelin]	0.173	0.874	0.917	0.841	0.856	0.855	0.865	0.673	0.864	3.32	5.87	1.87	1.4	1.98	0	0.761	1.92	1.83	5.07	6.4	2.41	7.31	2.69	0	3.43	2.48	2.04	0.0808	2.83	1.08	1.77	0.761	0	2.62	0.248	0.037
CCC(=O)N1CCN(c2ccc(-n3c(=O)ccc4cnc5ccc(-c6cnc7ccccc7c6)cc5c43)cc2C(F)(F)F)CC1 [Torin1] + N#CC(c1ccnc(NCCc2cccnc2)n1)c1nc2ccccc2s1 [AS601245]	0.962	0.948	1.07	1.11	1.32	0.864	1.02	2.44	0.963	0	0.0482	2.14	0	2.66	0.121	0	0.416	0	1.23	2.53	2.19	0.213	11.4	0.235	0	3.85	0	0	0.142	0	0	4.4	0	0	0.983	0
CCC(=O)N1CCN(c2ccc(-n3c(=O)ccc4cnc5ccc(-c6cnc7ccccc7c6)cc5c43)cc2C(F)(F)F)CC1 [Torin1] + O=c1[nH]c2ccccc2n1C1CCN(Cc2ccc(-c3[nH]c4cc5ncnc5cc4nc3-c3ccccc3)cc2)CC1 [Akt inhibitor VIII]	0.645	0.878	0.769	0.591	0.83	0.778	0.852	0.797	0.85	11.3	0.27	9.44	0.719	9.28	2.94	0.347	5.18	7.92	16.1	1.85	17.9	3.56	10.4	9.39	6.03	13.5	14.7	6.55	1.02	5.39	0.0946	3.46	4.49	5.43	0.944	0.504
